pKd: −log10 of the molar value. “Also recorded” adds a separate entry of the source. Where no end group is shown, it is not given here.
Tests used:
mAb 35 [1] = assay: Western blot of peptide-IChBD fusion proteins probed with mAb 35; assay type: binding, rat; conditions: for mAb 35 binding, result in words: Western blot
Experimental: (§1) Chitin beads adsorbed with peptide-IChBD fusion proteins were run on an SDS-PAGE gel and transferred to a nitrocellulose membrane and assayed with the four mAbs.
(§2) Chitin beads adsorbed with peptide-IChBD fusion proteins were run on an SDS-PAGE gel and transferred to a nitrocellulose membrane and assayed with the five mAbs.
(§3) To explore the effects of individual amino acid substitutions between the Torpedo and the human AChR MIR mimics, eight peptides were prepared, each with an amino acid substituted from the human sequence into the Torpedo sequence. The single amino acid substitutions in the Torpedo MIR were: N10K (SEQ ID NO:11), L12F (SEQ ID NO:12), R66K (SEQ ID NO:13), A70D (SEQ ID NO:14), I75V (SEQ ID NO:15), R79H (SEQ ID NO:16), D111Q (SEQ ID NO:17), and K115H (SEQ ID NO:18).

mAb 132A [2] = assay: Western blot of peptide-IChBD fusion proteins probed with mAb 132A; assay type: binding, rat; conditions: for mAb 132A binding, result in words: Western blot
Experimental: as §1, §2, §3

mAb 35 [3] = assay: Western blot of peptide-IChBD fusion proteins probed with mAb 35; assay type: binding, rat; parameters: key to mAb 35, fold-change in binding relative to Torpedo 39MIR: ‘—’ denotes no binding; conditions: for mAb 35 binding compared to the Torpedo 39 MIR: human 39MIR triple and quadruple mutants, FIG. 7
mAb 132A [4] = assay: Western blot of peptide-IChBD fusion proteins probed with mAb 132A; assay type: binding, rat; parameters: key to mAb 132A, fold-change in binding relative to Torpedo 39MIR: ‘—’ denotes no binding; conditions: for mAb 132A binding compared to the Torpedo 39 MIR: human 39MIR triple and quadruple mutants, FIG. 7
mAb 198 [5] = assay: Western blot of peptide-IChBD fusion proteins probed with mAb 198; assay type: binding, rat; conditions: for mAb 198 binding, result in words: Western blot; for mAb 198 binding compared to its binding to the human 39MIR: human 39MIR mutants, relative to human 39MIR
Description: as §1, §2
The Torpedo (SEQ ID NO:9) and human (SEQ ID NO:8) 39MIRs were made by joining the α(1-12), α(65-79), and α(110-115) segments of their respective a subunits with GS linkers. These two MIR mimics were expressed in E. coli as fusion proteins with an IChBD tag to permit peptide collection on chitin beads. These two peptides differ from each other by eight amino acids (FIG. 2). Both mimics were probed with mAb 198. mAb 198, which was derived from rats that had been immunized with human muscle AChR, is a MIR-directed mAb that binds mammalian as well as Torpedo MIR (13,21). It was also able to passively transfer EAMG to rats and binds to both native assembled AChR and to α-subunit fragments in Western blots (22,23). mAb 198 binds to the Torpedo and human MIR peptide mimics in Western blots (FIG. 3). However, mAb 198 binds to the Torpedo mimic about 50 times more strongly than to the human MIR mimic (FIG. 3).
as §3

[6] = tested on: antibodies in human MG serum samples; assay: Dot blot of His-tagged peptides against human MG serum samples; assay type: binding
Description: Sample were obtained from either normal subjects (i.e., without a diagnosis of myasthenia gravis (MG)) or subjects diagnosed with MG. Samples were contacted with the Torpedo 39MIR peptide (SEQ ID NO:9), the human 39MIR peptide (SEQ ID NO:8), the K10N/V75I/[…] human 39MIR triple mutant (SEQ ID NO:26), or the K10N/D70A/V75I/Q111D human 39MIR quadruple mutant (SEQ ID NO:27).
His-tagged variants of the Torpedo 39MIR, human 39MIR, […] triple mutant, and K10N/D70A/V75I/Q111D quadruple mutant peptides were expressed and probed for binding to antibodies in human MG serum samples. The peptides were dot-blotted onto a membrane and probed for binding to antibodies in our human MG serum library. […] None of the His-tagged peptides bound any antibodies in normal human serum samples (FIG. 11). Although the triple mutant peptide (SEQ ID NO:26) bound better overall to mAb 35, mAb 132A, and mAb 198, the quadruple mutant peptide (SEQ ID NO:27) was better for binding antibodies in MG sera.

mAb 334 = assay: Western blot of peptide-IChBD fusion proteins probed with mAb 334; assay type: binding, rat; conditions: Table 1, Western blot of FIG. 5, Torpedo 39MIR single mutants
Experimental: as §2, §3

[7] = tested on: MIR directed Abs in EAMG sera; conditions: reference 14; cited from earlier work
mAb 132A [8] = conditions: IChBD fusion; reference 14; read-out: Kd of complex with mAb 132A; cited from earlier work
mAb 198 [9] = assay: Western blot of peptide-Fc conjugates with mAb 198; assay type: binding, rat; conditions: Western blot FIG. 13
Description: (§4) A conjugate has been engineered (FIG. 12B) that fuses the chimeric Torpedo-human peptide (SEQ ID NO:27) to an antibody Fc domain.

mAb 132A [10] = assay: Western blot of peptide-Fc conjugates with mAb 132A; assay type: binding, rat; conditions: Western blot FIG. 13
Description: as §4

[11] = Table 2, Western blot of FIG. 7, human 39MIR multiple mutants
[12] = Table 3, single-substitution human 39MIR mutants
[13] = Table 1, Western blot of FIG. 5, Torpedo 39MIR single mutants

Substance	mAb 35 binding, result in words (mAb 35 [1])	mAb 132A binding, result in words (mAb 132A [2])	mAb 35, fold-change in binding relative to Torpedo 39MIR (mAb 35 [3]; [11])	mAb 132A, fold-change in binding relative to Torpedo 39MIR (mAb 132A [4]; [11])	mAb 198, fold-change in binding relative to Torpedo 39MIR (mAb 198 [5]; [11]) [fold-change]	mAb 198 binding, result in words (mAb 198 [5])	binding to antibodies in human MG serum samples ([6]; FIG. 11)	also measured
SEHETRLVAKLFGGGSLKWNPDDYGGIKKIHGSLDYTGH (synthetic main immunogenic region (MIR) peptide) [V75I/Q111D, Human MIR double mutant (V75I/Q111D)]	restored binding	restored binding	0.92 fold-change	3.34 fold-change	2.71	restored binding		
SEHETRLVAKLFGGGSLKWNPDDYGGVKKIHGSLQYTGH (synthetic main immunogenic region (MIR) peptide) [Human 39MIR]	does not bind; also recorded: not recognized; also recorded: did not bind	does not bind; also recorded: not recognized; also recorded: did not bind	—	—	0.09	binds; also recorded: recognized; also recorded: able to bind	did not bind any antibodies	mAb 35, fold-change in binding relative to Torpedo 39MIR (mAb 35 [3]; [12]): —; mAb 132A, fold-change in binding relative to Torpedo 39MIR (mAb 132A [4]; [12]): —; mAb 198, fold-change in binding relative to Torpedo 39MIR (mAb 198 [5]; [12]): 0.02 fold-change
SEHETRLVANLFGGGSLKWNPADYGGIKKIHGSLDYTGH (synthetic main immunogenic region (MIR) peptide) [K10N/D70A/V75I/Q111D, Human 39MIR quadruple mutant (K10N/D70A/V75I/Q111D)]			1.70 fold-change	0.99 fold-change	0.99		bound antibodies in the human sera	binding to antibodies in human MG serum samples ([6]; FIG. 11, listed as SEQ ID NO:27): a fraction of Abs in MG patient sera; binding to antibodies in human MG serum samples ([6]; FIG. 11, listed as quadruple mutant peptide): able to bind antibodies in all of our human MG serum samples; mAb 35 binding compared to the Torpedo 39 MIR (mAb 35 [3]): 1.70 ×; mAb 132A binding compared to the Torpedo 39 MIR (mAb 132A [4]): 0.99 ×; mAb 198 binding compared to its binding to the human 39MIR (mAb 198 [5]): 11 ×
SEHETRLVANLFGGGSLKWNPADYGGVKKIHGSLQYTGH (synthetic main immunogenic region (MIR) peptide) [K10N/D70A, Human 39MIR double mutant (K10N/D70A)]	restored binding	restored binding	0.31 fold-change	0.16 fold-change	0.72	restored binding		
SEHETRLVANLFGGGSLKWNPDDYGGIKKIHGSLDYTGH (synthetic main immunogenic region (MIR) peptide) [K10N/V75I/Q111D, Human 39MIR triple mutant (K10N/V75I/Q111D)]	improved binding		2.97 fold-change	2.46 fold-change	2.52	improved binding	only bound antibodies in one MG serum sample	binding to antibodies in human MG serum samples ([6]; FIG. 11, listed as K10N/N75I/Q111D): bound antibodies in the human sera; mAb 35 binding compared to the Torpedo 39 MIR (mAb 35 [3]): 2.97 ×; mAb 132A binding compared to the Torpedo 39 MIR (mAb 132A [4]): 2.46 ×; mAb 198 binding compared to its binding to the human 39MIR (mAb 198 [5]): 28 ×; mAb 198 binding compared to the Torpedo 39 MIR (mAb 198 [5]; human 39MIR triple mutant, FIG. 7): 2.52 ×
SEHETRLVANLFGGGSLKWNPDDYGGIKKIHGSLQYTGH (synthetic main immunogenic region (MIR) peptide) [K10N/V75I, Human 39MIR double mutant (K10N/V75I)]	restored binding	restored binding	1.10 fold-change	1.25 fold-change	1.79	restored binding		
SEHETRLVANLFGGGSLKWNPDDYGGVKKIHGSLDYTGH (synthetic main immunogenic region (MIR) peptide) [K10N/Q111D, Human 39MIR double mutant (K10N/Q111D)]	restored binding	restored binding	2.31 fold-change	1.07 fold-change	1.19	restored binding		
SEHETRLVANLLGGGSLRWNPADYGGIKKIRGSLDYTGK [Torpedo 39MIR]			1.00 fold-change	1.00 fold-change	1.00	binds; also recorded: able to bind	did not bind any antibodies	mAb 334, fold-change in binding relative to Torpedo 39MIR (mAb 334): 1.00 fold-change; mAb 35, fold-change in binding relative to Torpedo 39MIR (mAb 35 [1]; [13]): 1.00 fold-change; mAb 132A, fold-change in binding relative to Torpedo 39MIR (mAb 132A [2]; [13]): 1.00 fold-change; adsorption of MIR directed Abs in EAMG sera that block the binding of biotinylated mAb 132A to the Torpedo AChR [7]: able to adsorb all of the MIR directed Abs in EAMG sera; mAb 35, fold-change in binding relative to Torpedo 39MIR (mAb 35 [3]; [12]): 1.00 fold-change; pKd (mAb 132A [8]): 9.68; mAb 132A, fold-change in binding relative to Torpedo 39MIR (mAb 132A [4]; [12]): 1.00 fold-change; mAb 198, fold-change in binding relative to Torpedo 39MIR (mAb 198 [5]; [13]): 1.00 fold-change; mAb 198, fold-change in binding relative to Torpedo 39MIR (mAb 198 [5]; [12]): 1.00 fold-change; mAb 198 binding to the Torpedo mimic versus the human MIR mimic (mAb 198 [5]; Western blot FIG. 3, more strongly than to the human MIR mimic): about 50 times
Torpedo peptide-Fc conjugate: Torpedo 39MIR peptide (SEQ ID NO:9) conjugated to a human IgG antibody Fc domain plus hinge (SEHETRLVANLLGGGSLRWNPADYGGIKKIRGSLDYTGK; also: conjugated to human IgG Fc with hinge)								binding of mAb 198 to peptide-Fc conjugate (mAb 198 [9]): did not bind; binding of mAb 132A to peptide-Fc conjugate (mAb 132A [10]): did not bind

Source: patent US11422132B2, “Peptides and uses thereof for diagnosing and treating myasthenia gravis” (The Regents of the University of California, priority 2016, dated 2022)
